Values of other authors as cited in paper PMC7643960 (PLoS ONE, 2020).

Test system: healthy horses
Conditions: 1% NVX-207 twice a day for seven consecutive days, eight healthy horses; cited from earlier work

SMILES: C=C(C)[C@@H]1CC[C@]2(C(=O)O)CC[C@]3(C)[C@H](CC[C@@H]4[C@@]5(C)CC[C@H](O)C(C)(C)[C@@H]5CC[C@]43C)[C@@H]12 [betulinic acid, reference compound]
- tolerability after topical application: no compound-related local adverse effects
